Assay results: patent US6869788B2, “DNA encoding novel D-aminoacylase and process for producing D-amino acid by using the same” (Mitsui Chemicals, Inc., priority 2001, dated 2005)

B1: D-aminoacylase: the D-aminoacylase according to this invention, whose physical properties are listed; source strain not stated at that place (protein, listed as Methylobacterium mesophilicum)
chain: MTDSTRKHDLIIRGGTVIDGRRTPRFRADVAVRDGRLSAIGDLADHRAAQEIDATGRIVAPGFIDSHTHDDQAVLSQPQIPFKVSQGVTTVIAGNCGISAAPLRRDMDLPMPLNLIDVPAEERFTRFADYLDALRARPSSVNVAAMVGHSTLRAVTMPALDREANSEEIARMRALVQEAMDAGAIGVSTGTFYPPAVKATTEEIIEVCRPLTAAGGLYVTHMRDESDQVMTSLEETFRIGRALDVPVVVSHHKVQNTPNFGKSQVTLPFIREAMQRQRVCLDCYPYTAGSTMIRADRGMLEGRVLIAESLPHPECAGRDLDDIARDWGVDRVEAARRLQPGSAIYFLMDEGDVQRILAFDDTMIGSDGIPVGSKPHPRLWGTFPRVLGHYSRDVGLFPLETAVWKMTGLTARNFGLHGRGTLEAGQAADIVVFDAGTVRDAADYAEPTRPAEGIDAVIVNGAITWQGGQHTGARQGQVIRRQAAPSH

Test system: D-aminoacylase derived from Methylobacterium mesophilicum MT 10894 (FERM BP-7856)
Test: Substrate specificity of E. coli transformed by the DNA containing the D-aminoacylase gene to N-acetyl-DL-amino acids
Type: biochemical
Details: substrate 5 g/L, 40° C., 16 hours; activity with N-acetyl-DL-tryptophan as substrate = 100
Method: Reactivity and an optical purity were evaluated by analyzing a D-amino acid produced in a reaction and a remaining N-acylamino acid by high performance liquid chromatography (column: CROWNPAK CR(−); Daicel Chemical Industries, Ltd.); column temperature: 40° C.; mobile phase: HClO4 aq. pH 1.5 and 0 to 15% methanol (v/v); flow rate 0.8 mL/min, detection: 210 nm).
E. coli transformed by the plasmid shown in FIG. 1 in Example 7 was subject to shaking culture in an LB medium containing ampicillin (50 μg/mL) at 37° C. overnight. After culturing, the bacterial cells were harvested by centrifugation and washed with a 0.1 M phosphate buffer (pH 7.8). The bacterial cells were suspended in a 0.1 M phosphate buffer (pH 7.8).
Substrate specificity of E. coli transformed by the plasmid shown in FIG. 1 in Example 7 was compared for N-acetyl-DL-amino acids. In this example, the reaction was conducted at a substrate N-acetyl-DL-amino acid concentration of 5 g/L at 40° C. for 16 hours. Relative activities to a variety of N-acetyl-DL-amino acids together with optical purities and reaction yields were determined, assuming that D-aminoacylase activity was 100 when N-acetyl-DL-tryptophan was a substrate.

Molecule | Relative activity (%)
CC(=O)NC(Cc1ccc(Cl)cc1)C(=O)O (racemic) [N-acetyl-DL-4-chlorophenylalanine] | 89
CC(=O)NC(Cc1ccc(F)cc1)C(=O)O (racemic) [N-acetyl-DL-4-fluorophenylalanine] | 99
CC(=O)NC(Cc1c[nH]c2ccc(O)cc12)C(=O)O (racemic) [N-acetyl-DL-5-hydroxytryptophan] | 80
CC(=O)NC(CCc1ccccc1)C(=O)O (racemic) [N-acetyl-DL-homophenylalanine] | 45
CC(=O)NC(COCc1ccccc1)C(=O)O (racemic) [N-acetyl-DL-o-benzylserine] | 30
CC(=O)NC(Cc1ccccc1)C(=O)O (racemic) [N-acetyl-DL-phenylalanine] | 104
CC(=O)NC(Cc1c[nH]c2ccccc12)C(=O)O (racemic) [N-acetyl-DL-tryptophan] | 100
CC(=O)NC(Cc1ccc(O)cc1)C(=O)O (racemic) [N-acetyl-DL-tyrosine] | 67

Test system: not listed separately
Test: Physical properties of the D-aminoacylase (optimal pH, optimal temperature, thermal stability)
Type: physicochemical
Details: not given

Molecule | Optimal temperature
B1 | 60° C.;

Same assay, conditions: after heating at 40° C. for 20 hours

Molecule | Thermal stability: remaining activity [% remaining activity]
B1 | 80
